The values that follow are results of earlier work, collected in US9855261B2, “Polymeric compound having camptothecin compound and anti-cancer effect enhancer bound thereto, and use of same” (priority 2012, dated 2018).

For the data set the following is noted: of its dose.

SMILES strings stand for the structures.

For `CC[C@@]1(O)C(=O)OCc2c1cc1n(c2=O)Cc2cc3c(CN(C)C)c(O)ccc3nc2-1` [Topotecan], the “share of dose excreted renally” value was 20-40%.
